According to patent publication US9351998B2, “Methods of nourishing animals” (MariCal, Inc., priority 2008, dated 2016):
“Also recorded” adds a separate entry of the source.

How the values were obtained:
mammalian CaSR = biological target: T1, mammalian CaSR (Homo sapiens, UniProt P41180); experiment: FURA2 ratio imaging fluorimetry of HEK cells stably expressing mammalian CaSR; type: cell-based
T1 construct: expressed in transfected cells; host or cells: HEK cells stably expressing the mammalian CaSR
T1 sequence (P41180 20-1078): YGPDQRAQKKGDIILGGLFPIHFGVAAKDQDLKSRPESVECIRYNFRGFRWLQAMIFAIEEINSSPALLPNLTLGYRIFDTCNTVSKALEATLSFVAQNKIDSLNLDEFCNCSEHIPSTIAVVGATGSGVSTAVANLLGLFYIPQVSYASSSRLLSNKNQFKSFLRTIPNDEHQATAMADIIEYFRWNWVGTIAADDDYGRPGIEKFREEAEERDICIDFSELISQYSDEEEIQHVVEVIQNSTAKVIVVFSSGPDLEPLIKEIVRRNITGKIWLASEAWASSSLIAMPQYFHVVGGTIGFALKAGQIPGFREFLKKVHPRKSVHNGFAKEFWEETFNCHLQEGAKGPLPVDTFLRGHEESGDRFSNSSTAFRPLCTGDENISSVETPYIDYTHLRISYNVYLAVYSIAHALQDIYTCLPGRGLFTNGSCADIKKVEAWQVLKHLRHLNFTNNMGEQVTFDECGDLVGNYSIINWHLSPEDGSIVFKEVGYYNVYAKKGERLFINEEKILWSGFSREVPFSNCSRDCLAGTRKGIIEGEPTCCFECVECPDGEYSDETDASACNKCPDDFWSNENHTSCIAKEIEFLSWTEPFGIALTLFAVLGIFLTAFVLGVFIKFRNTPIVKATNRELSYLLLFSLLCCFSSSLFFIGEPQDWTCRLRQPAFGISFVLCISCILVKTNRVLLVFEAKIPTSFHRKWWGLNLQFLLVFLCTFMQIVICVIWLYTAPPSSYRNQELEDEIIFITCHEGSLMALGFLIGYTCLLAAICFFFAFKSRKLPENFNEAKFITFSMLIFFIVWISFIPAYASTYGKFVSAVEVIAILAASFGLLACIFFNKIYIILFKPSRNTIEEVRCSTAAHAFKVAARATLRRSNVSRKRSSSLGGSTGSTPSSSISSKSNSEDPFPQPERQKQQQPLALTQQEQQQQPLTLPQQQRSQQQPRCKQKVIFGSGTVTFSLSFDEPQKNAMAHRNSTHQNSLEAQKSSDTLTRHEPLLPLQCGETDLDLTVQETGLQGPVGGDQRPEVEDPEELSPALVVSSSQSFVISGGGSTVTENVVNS
Text: All methods and equipment utilized to perform experiments on HEK cells have been reported previously (Gama, L. and Breitwieser, G. E. 1998. A carboxyl-terminal domain controls the cooperativity for extracellular Ca2+ activation of the human calcium sensing receptor. A study with receptor-green fluorescent protein fusions. J. Biol. Chem. 273, 29712-29718; Bai, M., Quinn, S., Trivedi, S., Kifor, 0., Pearce, S. H., Pollak, M. R., Krapcho, K., Hebert, S. C. and Brown, E. M. 1996. Expression and characterization of inactivating and activating mutations in the human Ca2+o-sensing receptor. J. Biol. Chem. 271, 19537-19544). Untransfected HEK cells or, alternatively, cells transfected and expressing CaSR protein were cultured in Dulbecco's Modified Eagle Medium containing 10% fetal bovine serum and 1% penicillin-streptomycin in 75 cm^2 flasks until they reached confluence. Media was removed from the flasks and cells were loaded by exposure to Loading Buffer (125 mM NaCl, 4 mM KCl, 1.0 mMCaCl2, 1.0 mM MgCl2, 1 mM NaH2PO4, 20 mM HEPES, 1 gm/liter bovine serum albumin, and 1 gm/l glucose, pH ˜7.4, osmolality ˜285) containing 4.1 micromolar FURA2-AM (Molecular Probes Inc. Eugene, Oreg.) for 2 hr. Cells were then scraped from the surface of the flask using a standard cell scraper (Costar 3010, Corning Inc.). Cells were then pelleted from the suspension by low speed centrifugation to remove loading buffer and rinsed twice to remove extracellular FURA2 dye by two sequential suspensions and pelleting steps using low speed centrifugation. Immediately prior to the start of the experiment, cells were resuspended in various experimental buffers for analyses as described below. The Standard Experimental Buffer used for many studies was composed of: 125 mM NaCl, 4 mM KCl, 0.5 mMCaCl2, 0.5 mM MgCl2, 20 mM HEPES, 1 g/l glucose, pH ˜7.4, osmolality ˜285. All other buffers were variations on this basic composition where specific components within the Standard Experimental Buffer were varied while the remaining components were held constant.
Cell suspensions consisting of a total volume of 3 ml were analyzed in a PTI fluorimeter (PTI Model 814 Photomultiplier Detection System equipped with SC-500 Shutter Controller and PTI Driver and Analysis Software) within approximately 20 min after exposure to experimental buffers. Data was acquired using standard ratio image analysis as described previously using a data acquisition rate of 1.3 sec. for 500 or 1000 second intervals.
In selected experiments, the detergent Triton X-100 was added in order to lyse the cells and quantify differences in FURA2 ratio fluorescence. Triton X-100 was added to the cells to obtain a maximal fluorescence signal from the FURA2 for purposes of quantification.
Experiments on HEK cells were performed generally as described in Example 6 herein. […] Subsequent addition of Ca2+ to a final concentration of 5 mM produced an additional response (see FIG. 26A). No response was observed upon addition of 0.025% Mintrex Zn after the addition of experimental buffer (EB) (see FIG. 26B). […] In addition, the magnitude of the CaSR response to 5 mM Ca2+ was diminished by previous addition of Mintrex Zn.
For mammalian CaSR experiments, two individual aliquots from a single pool of HEK cells that stably express the recombinant mammalian CaSR protein were used for ratio imaging fluorimetry assays of CaSR activation generally as described in Example 6 herein. Addition of Ca++ to a final concentration of 2.5 mM produced a CaSR response that was also followed by responses after subsequent additions of 0.025% Zn proteinate followed by Ca++ to a final concentration of 7.5 mM (FIG. 29B). […] There was also a response to a subsequent dose of Ca++ to a final concentration of 7.5 mM (FIG. 29B). In both tracings, the detergent Triton X-100 was added as a final step to lyse the cells.
Experiments on HEK cells were performed generally as described in Example 6 herein. […]

chick CaSR = experiment: Plasma calcium in chicks after single oral gavage of CaSR modulator; type: in vivo; conditions: various doses, 2 week old and newly hatched chicks, various intervals of time
Text: Male chicks (either newly hatched or 2 weeks of age) were gavaged with a single application of various doses of the specific CaSR modulator (MC 0100), a specific pharmacological modulator of CaSRs, to increase the apparent sensitivity of the CaSR to agonists such as calcium. An increase in the apparent sensitivity of the chick CaSR to extracellular calcium is expected to result in the “resetting” of the normal range of calcium within the chick to a lower level of plasma calcium since the functioning CaSR are all shifted leftward (more sensitive) on the dose response curve of CaSR for calcium.

effect of prior modulator on CaSR response to 0.025% Zn Proteinate (mammalian CaSR; 1 micromolar MC 0100): increased the response
CaSR response to stepwise additions (mammalian CaSR; after addition of 2.5 mM Ca++ (FIG. 37)): increased responses
effect on Mintrex Zn-induced reduction of CaSR response to 5 mM Ca2+ (mammalian CaSR; previous addition of 1 micromolar MC0100): partially restored
Structure (SMILES): COc1cccc([C@@H](C)NCCCc2ccccc2)c1 [MC0100]
effect of prior modulator on CaSR response to 0.025% Mintrex Zn (mammalian CaSR; 1 micromolar MC0100 added before Mintrex Zn): responded to 0.025% Mintrex Zn only after the addition of 1 micromolar MC0100
CaSR response to the modulator itself (mammalian CaSR; MC0100 at final 1 micromolar): very small CaSR response; also recorded: did not itself produce a large response
plasma calcium (chick CaSR): dose dependent decrease
